Laboratory results published in PubChem BioAssay AID1361 (SRMLSC, 2008).
pIC50: −log10 of the molar value. Calls of active or inactive are those of the source. No rule for the calls is given here.

Assay: blockers of mitochondrial fusion, WT vs mutant – cell-based, chemical genetic, wild-type and mutant, confirmation (AID 1361)
Details: Cell-based mitochondrial fusion phenotype, imaging
[1] = mutant cells, measured here: mutant cell line IC50

Row | Structure (SMILES) | IC50 (WT cells) | pIC50 [1] | pIC50 (WT cells)
1 | C/C(=N\O)c1ccc2c3c([nH]c2c1)CCCC3 | > 25 µM (inactive) | < 4.60 | –
2 | CC(C)C(=O)N(c1cc2sc(=O)oc2c2ccccc12)S(=O)(=O)c1cccs1 | – | 4.68 | 5.13
3 | Cc1ccc(S(=O)(=O)Nc2ccc(C(OC(=O)c3ccccc3[N+](=O)[O-])(C(F)(F)F)C(F)(F)F)cc2)cc1 | – | < 4.60 | 4.96
4 | Cc1cc(C)c2nc(C(F)(F)F)nc(N3CC(C)OC(C)C3)c2c1 (stereo not given) | > 25 µM (inactive) | < 4.60 | –
5 | Cc1ccc(-n2cccc2/C=C2\C(=N)N3N=C(C(C)C)SC3=NC2=O)cc1 | – | < 4.60 | 4.97
6 | Cc1nc(N2CCCCC2)c2c(-c3cccs3)csc2n1 | – | < 4.60 | 4.65
7 | CCCCCC(O)c1cccc(OCc2ccc3ccccc3n2)c1 (stereo not given) | – | < 4.60 | 4.83
8 | O=C(c1cnc(-c2ccc(Cl)cc2)s1)c1ccc(Cl)cc1Cl | – | < 4.60 | 4.84
9 | O=C1/C(=C/c2cccc3ccccc23)CCCc2ccccc21 | – | < 4.60 | 4.76
10 | O=S(=O)(NCCOCCNS(=O)(=O)c1ccccc1)c1ccccc1 | > 25 µM (inactive) | < 4.60 | –
11 | CCN1C(=O)S/C(=C/c2c(OCc3ccc(C(=O)O)cc3)ccc3ccccc23)C1=O | – | < 4.60 | 4.73
12 | CCOC(=O)C1CCCN(C(=O)CS(=O)(=O)Cc2ccccc2)C1 (stereo not given) | > 25 µM (inactive) | < 4.60 | –
13 | Cc1cc(Cl)ccc1OCC(=O)Nc1nc(-c2cccs2)cs1 | 13.4 µM (inactive) | 5.01 | –
14 | CCn1c(CNC(=O)c2ccco2)nnc1SCC(=O)Nc1cc(C(F)(F)F)ccc1Cl | > 25 µM (inactive) | < 4.60 | –
15 | COCC(C)n1c(SCc2ccc(OC)c(F)c2)nc2ccccc2c1=O (stereo not given) | – | < 4.60 | 4.81
16 | Cc1ccc(S(=O)(=O)Nc2ccc(N=Nc3ccc(O)cc3)cc2)cc1 | – | < 4.60 | 4.77
17 | CNC(=S)N1CCN(c2ccc([N+](=O)[O-])cc2)CC1 | > 25 µM (inactive) | < 4.60 | –
18 | COC(=O)c1ccc(CSc2nc3ccccc3c(=O)n2CC(C)C)o1 | > 25 µM (inactive) | < 4.60 | –
19 | O=C1COc2ccc(NC(=O)N3CCN(c4ccc(F)cc4)CC3)cc2N1 | > 25 µM (inactive) | < 4.60 | –
20 | CCc1ccc(CCC(=O)Nc2ccccc2C(=O)O)o1 | > 25 µM (inactive) | < 4.60 | –

Row | Structure (SMILES) | IC50 (WT cells) | pIC50 [1] | pIC50 (WT cells)
21 | COc1ccc(OC)c(NC(=O)COC(=O)Cc2ccc(Br)cc2)c1 | > 25 µM (inactive) | < 4.60 | –
22 | CC(=O)Nc1sc2c(c1C(c1ccc(Cl)cc1)N1CCOCC1)CCCC2 (stereo not given) | – | < 4.60 | 4.88
23 | Cc1ccc(-n2cc(CNCCc3cscn3)c(-c3ccc(F)cc3)n2)cc1 | > 25 µM (inactive) | < 4.60 | –
24 | c1ccc(-c2[nH]c(-c3ccccc3)[n+](CC3CO3)c2-c2ccccc2)cc1 (stereo not given) | – | < 4.60 | 4.73
25 | CCOC(=O)/C(=C/c1ccc(N2CCC(c3ccccc3)=N2)cc1)C(C)=O | > 25 µM (inactive) | < 4.60 | –
26 | Cc1ccc(CNCC(O)(c2ccccc2)c2ccc(F)cc2)cc1 (stereo not given) | > 25 µM (inactive) | < 4.60 | –
27 | CC1CC2(CCCC2)N(C(=O)c2ccccc2)Cc2ccccc21 (stereo not given) | 24.9 µM (inactive) | < 4.60 | –
28 | CCOc1ccccc1NC(=O)NC(=O)N(C)S(=O)(=O)c1ccc(C)cc1 | > 25 µM (inactive) | < 4.60 | –
29 | CC(C)C(=O)Nc1ccc(C(=O)NNC(=O)CCCOc2ccc(Cl)cc2Cl)cc1 | > 25 µM (inactive) | < 4.60 | –
30 | Cc1cc(Oc2cnn(C(C)(C)C)c(=O)c2Cl)cc(C(C)C)c1 | – | < 4.60 | 4.77
31 | O=C(Nc1ccc(C(F)(F)F)cc1)c1cc(S(=O)(=O)NCC2COc3ccccc3O2)ccc1F (stereo not given) | – | < 4.60 | 4.82
32 | CCCCOC(=O)c1ccc(NC(=O)c2ccccc2OC)cc1 | > 25 µM (inactive) | < 4.60 | –
33 | COc1ccc(NC(=S)NC(NC(=O)c2ccc(Cl)cc2Cl)C(Cl)(Cl)Cl)c([N+](=O)[O-])c1 (stereo not given) | – | < 4.60 | 4.94
34 | CCOC(=O)C1=C(C)C(c2cccc(Oc3ccccc3)c2)NC(=S)N1 (stereo not given) | > 25 µM (inactive) | < 4.60 | –
35 | CC(C)Cc1nc(N2CCN(C(=O)c3ccccc3)CC2)c(C#N)c2c1CCC2 | – | < 4.60 | 4.79
36 | Cc1ccc2c(N)c(C#N)sc2n1 | > 25 µM (inactive) | < 4.60 | –
37 | COc1ccc(CCNS(=O)(=O)c2ccc(OC)cc2)cc1 | > 25 µM (inactive) | < 4.60 | –
38 | CCCCSc1nnc(-c2ccccc2)c2ccccc12 | 24.9 µM (inactive) | < 4.60 | –
39 | c1ccc(-c2cn3c(n2)CCc2ccc4cccnc4c2-3)cc1 | 23.7 µM (inactive) | 4.67 | –
40 | c1ccc(-c2csc3ncnc(N4CCc5ccccc5C4)c23)cc1 | – | < 4.60 | 5.03
